{
  "source": "patent US11033535B2",
  "about": "“Oxadiazoles and thiadiazoles as TGF-β inhibitors” (Southern Research Institute, priority 2017, dated 2021)",
  "assay": "Pharmacokinetic evaluation following a single oral and intravenous administration",
  "assay_type": "in vivo, CD1 mouse",
  "details": "for concentration at 1 h / concentration at 2 h / concentration at 4 h / concentration at 8 h / concentration at 24 h / AUC(0-inf) / AUC(0-t) / Cmax / MRT inf / half-life: CD1, mouse, plasma, po, 5 mg/kg; for concentration at 1 h / concentration at 2 h / concentration at 4 h / concentration at 8 h / concentration at 24 h: Table 5, PO Dose: 5 mg/kg",
  "experimental": "A NMP stock solution was prepared by adding 1.136 mL of NMP to 5.68 mg of compound no. 42140 with vortexing and sonification, to obtain a solution with a concentration at 5 mg/mL of 42140:01. Next, to prepare an intravenous formulation, 0.100 mL of the 5 mg/mL stock solution was placed in a new vial. 0.100 mL of NMP and 0.400 mL of PEG400 were added with vortexing and sonification, followed by addition of 0.400 mL of saline with vortexing and sonification. […] 42140:01. Alternatively, to prepare an oral formulation, 0.200 mL of the 5 mg/mL stock solution was placed in a new vial. 0.400 mL of PEG400 was added with vortexing and sonification, followed by addition of 0.400 mL of saline with vortexing and sonifiction. […] 42140:01.\n(§1) Briefly, the desired serial concentrations of working solutions were achieved by diluting a stock solution of the compound with 100% acetonitrile. 3 μL of working solutions (5, 10, 20, 50, 100, 500, 1000, 5000, 10000 ng/mL) were added to 30 μL of the blank CD1 mouse plasma to achieve calibration standards of 0.5-1000 ng/mL (0.5, 1, 2, 5, 10, 50, 100, 500, 1000 ng/mL) in a total volume of 33 μL. Five quality control samples at 1 ng/mL, 2 ng/mL, 5 ng/mL, 50 ng/mL and 800 ng/mL for plasma were prepared independently of those used for the calibration curves. These QC samples were prepared on the day of analysis in the same way as calibration standards.\nNext, 33 μL standards, 33 μL QC samples, and 33 μL unknown samples (30 μL plasma with 3 μL blank solution) were added to 200 μL of acetonitrile containing IS mixture for precipitating protein, respectively. Then the samples were vortexed for 30 s. After centrifugation at 4 degree Celsius, 4000 rpm for 15 min, 3 μL of supernatant was injected into the LC/MS/MS system for quantitative analysis.\nHPLC analysis was performed using 100% water with 0.1% formic acid (Solution A) and 100% acetonitrile with 0.1% formic acid (Solution B) with a flow rate of 0.6 mL/min.\nA NMP stock solution was prepared by adding 2.092 mL of NMP to 10.46 mg of […] with vortexing and sonification, to obtain a solution with a concentration at 5 mg/mL of […]. Next, to prepare an intravenous formulation, 0.100 mL of the 5 mg/mL stock solution was placed in a new vial. 0.100 mL of NMP and 0.400 mL of PEG400 were added with vortexing and sonification, followed by addition of 0.400 mL of saline with vortexing and sonification. […] 42320:01. Alternatively, to prepare an oral formulation, 0.200 mL of the 5 mg/mL stock solution was placed in a new vial. 0.400 mL of PEG400 was added with vortexing and sonification, followed by addition of 0.400 mL of saline with vortexing and sonifiction. […] 42320:01.\nas §1, with “50 ng/mL,” for “50 ng/mL”",
  "key": {"[1]": {"details": "Mouse 5, read-out: Concentration"}, "[2]": {"details": "Mouse 6, read-out: Concentration"}, "[3]": {"details": "mean, read-out: Concentration, Mean"}, "[4]": {"details": "Mouse 4, read-out: Concentration"}, "[5]": {"details": "Table 4, IV Dose: 1 mg/kg, Mouse 1"}, "[6]": {"details": "Table 4, IV Dose: 1 mg/kg, Mouse 2"}, "[7]": {"details": "Table 4, IV Dose: 1 mg/kg, Mouse 3"}, "[8]": {"details": "Table 4, IV Dose: 1 mg/kg, mean"}, "[9]": {"details": "Table 6, PO Dose: 5 mg/kg, Mouse 4"}, "[10]": {"details": "Table 6, PO Dose: 5 mg/kg, Mouse 5"}, "[11]": {"details": "Table 6, PO Dose: 5 mg/kg, Mouse 6"}, "[12]": {"details": "Table 6, PO Dose: 5 mg/kg, mean"}},
  "note": "Where two headings read alike, the source gives them in different places.",
  "data": [
    {"compound": "CNCc1ccc(C[C@H](NC(C)=O)c2nnc(-c3cccc(OC(F)(F)F)c3)s2)cc1", "note": "[Compound 42140, N-(2-(4-((methylamino)methyl)phenyl)-1-(5-(3-(trifluoromethoxy)phenyl)-1,3,4-thiadiazol-2-yl)ethyl)acetamide]", "values": [
      {"measurement": "concentration at 1 h", "setting": "[1]", "result": 129, "unit": "ng/mL"},
      {"measurement": "concentration at 1 h", "setting": "[2]", "result": 136, "unit": "ng/mL"},
      {"measurement": "concentration at 1 h", "setting": "[3]", "result": 127, "unit": "ng/mL"},
      {"measurement": "concentration at 2 h", "setting": "[4]", "result": 139, "unit": "ng/mL"},
      {"measurement": "concentration at 2 h", "setting": "[1]", "result": 140, "unit": "ng/mL"},
      {"measurement": "concentration at 2 h", "setting": "[2]", "result": 175, "unit": "ng/mL"},
      {"measurement": "concentration at 2 h", "setting": "[3]", "result": 151, "unit": "ng/mL"},
      {"measurement": "concentration at 4 h", "setting": "[4]", "result": 103, "unit": "ng/mL"},
      {"measurement": "concentration at 4 h", "setting": "[1]", "result": 112, "unit": "ng/mL"},
      {"measurement": "concentration at 4 h", "setting": "[2]", "result": 123, "unit": "ng/mL"},
      {"measurement": "concentration at 4 h", "setting": "[3]", "result": 113, "unit": "ng/mL"},
      {"measurement": "concentration at 8 h", "setting": "[4]", "result": 72.7, "unit": "ng/mL"},
      {"measurement": "concentration at 8 h", "setting": "[1]", "result": 91.4, "unit": "ng/mL"},
      {"measurement": "concentration at 8 h", "setting": "[2]", "result": 93.5, "unit": "ng/mL"},
      {"measurement": "concentration at 8 h", "setting": "[3]", "result": 85.9, "unit": "ng/mL"},
      {"measurement": "concentration at 24 h", "setting": "[4]", "result": 29.8, "unit": "ng/mL"},
      {"measurement": "concentration at 24 h", "setting": "[1]", "result": 22.7, "unit": "ng/mL"},
      {"measurement": "concentration at 24 h", "setting": "[2]", "result": 29.6, "unit": "ng/mL"},
      {"measurement": "concentration at 24 h", "setting": "[3]", "result": 27.4, "unit": "ng/mL"},
      {"measurement": "AUC(0-inf)", "setting": "Table 6, PO Dose: 5 mg/kg, Mouse 4, read-out: AUCInf", "result": 2110, "unit": "ng·h/mL"},
      {"measurement": "AUC(0-t)", "setting": "Table 6, PO Dose: 5 mg/kg, Mouse 4, read-out: AUClast", "result": 1620, "unit": "ng·h/mL"},
      {"measurement": "Cmax", "setting": "Table 6, PO Dose: 5 mg/kg, Mouse 4, read-out: Cmax", "result": 139, "unit": "ng/mL"},
      {"measurement": "MRT inf", "setting": "Table 6, PO Dose: 5 mg/kg, Mouse 4, read-out: MRTInf—obs", "result": 15.8, "unit": "h"},
      {"measurement": "half-life", "setting": "Table 6, PO Dose: 5 mg/kg, Mouse 4, read-out: T1/2 (converted)", "result": 11.5, "unit": "h"},
      {"measurement": "AUC(0-inf)", "setting": "Table 6, PO Dose: 5 mg/kg, Mouse 5, read-out: AUCInf", "result": 2060, "unit": "ng·h/mL"},
      {"measurement": "AUC(0-t)", "setting": "Table 6, PO Dose: 5 mg/kg, Mouse 5, read-out: AUClast", "result": 1790, "unit": "ng·h/mL"},
      {"measurement": "Cmax", "setting": "Table 6, PO Dose: 5 mg/kg, Mouse 5, read-out: Cmax", "result": 140, "unit": "ng/mL"},
      {"measurement": "MRT inf", "setting": "Table 6, PO Dose: 5 mg/kg, Mouse 5, read-out: MRTInf—obs", "result": 11.4, "unit": "h"},
      {"measurement": "half-life", "setting": "Table 6, PO Dose: 5 mg/kg, Mouse 5, read-out: T1/2 (converted)", "result": 8.47, "unit": "h"},
      {"measurement": "AUC(0-inf)", "setting": "Table 6, PO Dose: 5 mg/kg, Mouse 6, read-out: AUCInf", "result": 2380, "unit": "ng·h/mL"},
      {"measurement": "AUC(0-t)", "setting": "Table 6, PO Dose: 5 mg/kg, Mouse 6, read-out: AUClast", "result": 1960, "unit": "ng·h/mL"},
      {"measurement": "Cmax", "setting": "Table 6, PO Dose: 5 mg/kg, Mouse 6, read-out: Cmax", "result": 175, "unit": "ng/mL"},
      {"measurement": "MRT inf", "setting": "Table 6, PO Dose: 5 mg/kg, Mouse 6, read-out: MRTInf—obs", "result": 13.1, "unit": "h"},
      {"measurement": "half-life", "setting": "Table 6, PO Dose: 5 mg/kg, Mouse 6, read-out: T1/2 (converted)", "result": 9.71, "unit": "h"},
      {"measurement": "AUC(0-inf)", "setting": "Table 6, PO Dose: 5 mg/kg, mean, read-out: AUCInf, Mean", "result": 2190, "unit": "ng·h/mL"},
      {"measurement": "AUC(0-t)", "setting": "Table 6, PO Dose: 5 mg/kg, mean, read-out: AUClast, Mean", "result": 1790, "unit": "ng·h/mL"},
      {"measurement": "Cmax", "setting": "Table 6, PO Dose: 5 mg/kg, mean, read-out: Cmax, Mean", "result": 151, "unit": "ng/mL"},
      {"measurement": "MRT inf", "setting": "Table 6, PO Dose: 5 mg/kg, mean, read-out: MRTInf—obs, Mean", "result": 13.4, "unit": "h"},
      {"measurement": "half-life", "setting": "Table 6, PO Dose: 5 mg/kg, mean, read-out: T1/2, Mean (converted)", "result": 9.9, "unit": "h"},
      {"measurement": "Tmax", "setting": "CD1, plasma, Table 6, PO Dose: 5 mg/kg, Mouse 4", "result": 2, "unit": "h"},
      {"measurement": "AUClast/D", "setting": "[5]", "result": 462, "unit": "h·ng/mL per mg/kg"},
      {"measurement": "AUC—% Extrap—obs", "setting": "[5]", "result": 17.0, "unit": "%"},
      {"measurement": "Cl_obs", "setting": "[5]", "result": 29.9, "unit": "mL/min/kg"},
      {"measurement": "AUClast/D", "setting": "[6]", "result": 389, "unit": "h·ng/mL per mg/kg"},
      {"measurement": "AUC—% Extrap—obs", "setting": "[6]", "result": 19.8, "unit": "%"},
      {"measurement": "Cl_obs", "setting": "[6]", "result": 34.3, "unit": "mL/min/kg"},
      {"measurement": "AUClast/D", "setting": "[7]", "result": 394, "unit": "h·ng/mL per mg/kg"},
      {"measurement": "AUC—% Extrap—obs", "setting": "[7]", "result": 11.6, "unit": "%"},
      {"measurement": "Cl_obs", "setting": "[7]", "result": 37.4, "unit": "mL/min/kg"},
      {"measurement": "AUClast/D, Mean", "setting": "[8]", "result": 415, "unit": "h·ng/mL per mg/kg"},
      {"measurement": "AUC—% Extrap—obs, Mean", "setting": "[8]", "result": 16.1, "unit": "%"},
      {"measurement": "C0, Mean", "setting": "[8]", "result": 101, "unit": "ng/mL"},
      {"measurement": "Cl_obs, Mean", "setting": "[8]", "result": 33.9, "unit": "mL/min/kg"},
      {"measurement": "AUClast/D", "setting": "[9]", "result": 324, "unit": "h·ng/mL per mg/kg"},
      {"measurement": "AUC—% Extrap—obs", "setting": "[9]", "result": 23.4, "unit": "%"},
      {"measurement": "F", "setting": "[9]", "result": 78.0, "unit": "%"},
      {"measurement": "AUClast/D", "setting": "[10]", "result": 358, "unit": "h·ng/mL per mg/kg"},
      {"measurement": "AUC—% Extrap—obs", "setting": "[10]", "result": 13.4, "unit": "%"},
      {"measurement": "F", "setting": "[10]", "result": 83.3, "unit": "%"},
      {"measurement": "AUClast/D", "setting": "[11]", "result": 393, "unit": "h·ng/mL per mg/kg"},
      {"measurement": "AUC—% Extrap—obs", "setting": "[11]", "result": 17.4, "unit": "%"},
      {"measurement": "F", "setting": "[11]", "result": 95.9, "unit": "%"},
      {"measurement": "AUClast/D, Mean", "setting": "[12]", "result": 358, "unit": "h·ng/mL per mg/kg"},
      {"measurement": "AUC—% Extrap—obs, Mean", "setting": "[12]", "result": 18.1, "unit": "%"},
      {"measurement": "F, Mean", "setting": "[12]", "result": 85.7, "unit": "%"}
    ]}
  ]
}
